Source: publication PMC10470521, “Structural basis of a bi-functional malonyl-CoA reductase (MCR) from the photosynthetic green non-sulfur bacterium Roseiflexus castenholzii” (mBio, 2023)

How the values were obtained:
[1] = target: T1, RfxMCR-C (Roseiflexus castenholzii, UniProt A7NN59); assay: X-ray crystal structure, […] Å; type: binding; conditions: SDR3 / ED interface
T1 construct: gene Rcas_2929; C-terminal fragment Gly573-Val1229 (SDR3-ED-SDR4), N-terminal His6 tag (pET28a), E. coli BL21(DE3)

[2] = target: T2, RfxMCR-N (Roseiflexus castenholzii, UniProt A7NN59); assay: X-ray crystal structure, […] Å; type: binding; conditions: ternary complex with NADP+; SDR1 site; MSA not added, modelled in extra density; crystals grown in 1 M sodium malonate pH 5.0
T2 construct: gene Rcas_2929; N-terminal fragment Met1-Phe572 (SDR1-SDR2), C-terminal His6 tag (pET28a), E. coli BL21(DE3)

[3] = target: T3, full-length RfxMCR (Roseiflexus castenholzii, UniProt A7NN59, L795A); assay: NADPH oxidation at […] nm; type: biochemical; conditions: 0.4 mM NADPH, 5 mM MgCl2, 100 mM Tris-HCl pH 8.0, 150 mM NaCl, 50°C; apparent; overall two-step reduction
T3 construct: gene Rcas_2929; full length Met1-Val1229, C-terminal His6 tag (pET20b), E. coli BL21(DE3); homodimer ~270 kDa

[4] = target: T4, full-length RfxMCR (Roseiflexus castenholzii, UniProt A7NN59, R799A); assay: NADPH oxidation at […] nm; type: biochemical; conditions: 0.4 mM NADPH, 5 mM MgCl2, 100 mM Tris-HCl pH 8.0, 150 mM NaCl, 50°C; apparent; overall two-step reduction; extra domain
T4 construct: gene Rcas_2929; full length Met1-Val1229, C-terminal His6 tag (pET20b), E. coli BL21(DE3); homodimer ~270 kDa

[5] = target: T5, full-length RfxMCR (Roseiflexus castenholzii, UniProt A7NN59, R785A); assay: NADPH oxidation at […] nm; type: biochemical; conditions: 0.4 mM NADPH, 5 mM MgCl2, 100 mM Tris-HCl pH 8.0, 150 mM NaCl, 50°C; apparent; overall two-step reduction; extra domain
T5 construct: gene Rcas_2929; full length Met1-Val1229, C-terminal His6 tag (pET20b), E. coli BL21(DE3); homodimer ~270 kDa

[6] = target: T6, full-length RfxMCR (Roseiflexus castenholzii, UniProt A7NN59, K753A); assay: NADPH oxidation at […] nm; type: biochemical; conditions: 0.4 mM NADPH, 5 mM MgCl2, 100 mM Tris-HCl pH 8.0, 150 mM NaCl, 50°C; apparent; overall two-step reduction
T6 construct: gene Rcas_2929; full length Met1-Val1229, C-terminal His6 tag (pET20b), E. coli BL21(DE3); homodimer ~270 kDa

[7] = target: T7, full-length RfxMCR (Roseiflexus castenholzii, UniProt A7NN59, K182A); assay: NADPH oxidation at […] nm; type: biochemical; conditions: 0.4 mM NADPH, 5 mM MgCl2, 100 mM Tris-HCl pH 8.0, 150 mM NaCl, 50°C; apparent; overall two-step reduction
T7 construct: gene Rcas_2929; full length Met1-Val1229, C-terminal His6 tag (pET20b), E. coli BL21(DE3); homodimer ~270 kDa

[8] = target: T8, full-length RfxMCR (Roseiflexus castenholzii, UniProt A7NN59, R746A); assay: NADPH oxidation at […] nm; type: biochemical; conditions: 0.4 mM NADPH, 5 mM MgCl2, 100 mM Tris-HCl pH 8.0, 150 mM NaCl, 50°C; apparent; overall two-step reduction; SDR3 site
T8 construct: gene Rcas_2929; full length Met1-Val1229, C-terminal His6 tag (pET20b), E. coli BL21(DE3); homodimer ~270 kDa

[9] = target: T9, full-length RfxMCR (Roseiflexus castenholzii, UniProt A7NN59, Y178A); assay: NADPH oxidation at […] nm; type: biochemical; conditions: 0.4 mM NADPH, 5 mM MgCl2, 100 mM Tris-HCl pH 8.0, 150 mM NaCl, 50°C; apparent; overall two-step reduction
T9 construct: gene Rcas_2929; full length Met1-Val1229, C-terminal His6 tag (pET20b), E. coli BL21(DE3); homodimer ~270 kDa

[10] = target: T10, full-length RfxMCR (Roseiflexus castenholzii, UniProt A7NN59, S731A); assay: NADPH oxidation at […] nm; type: biochemical; conditions: 0.4 mM NADPH, 5 mM MgCl2, 100 mM Tris-HCl pH 8.0, 150 mM NaCl, 50°C; apparent; overall two-step reduction; SDR3 site
T10 construct: gene Rcas_2929; full length Met1-Val1229, C-terminal His6 tag (pET20b), E. coli BL21(DE3); homodimer ~270 kDa

[11] = target: T11, full-length RfxMCR (Roseiflexus castenholzii, UniProt A7NN59, T165A); assay: NADPH oxidation at […] nm; type: biochemical; conditions: 0.4 mM NADPH, 5 mM MgCl2, 100 mM Tris-HCl pH 8.0, 150 mM NaCl, 50°C; apparent; overall two-step reduction; SDR1 site (second step, MSA to 3-HP)
T11 construct: gene Rcas_2929; full length Met1-Val1229, C-terminal His6 tag (pET20b), E. coli BL21(DE3); homodimer ~270 kDa

[12] = target: T12, full-length RfxMCR (Roseiflexus castenholzii, UniProt A7NN59, Y749A); assay: NADPH oxidation at […] nm; type: biochemical; conditions: 0.4 mM NADPH, 5 mM MgCl2, 100 mM Tris-HCl pH 8.0, 150 mM NaCl, 50°C; apparent; overall two-step reduction
T12 construct: gene Rcas_2929; full length Met1-Val1229, C-terminal His6 tag (pET20b), E. coli BL21(DE3); homodimer ~270 kDa

[13] = target: RfxMCR-C (Gly573-Val1229) (Roseiflexus castenholzii DSM 13941) (UniProt A7NN59); assay: crystal structure; RfxMCR-C with NADP+ and MSA; 1.6 M sodium formate, 0.1 M Bis-tris propane pH 7.0, 16°C; P6(5)22, dimer by crystal packing; 2.3 Å

T1 sequence (A7NN59 entry or part of it): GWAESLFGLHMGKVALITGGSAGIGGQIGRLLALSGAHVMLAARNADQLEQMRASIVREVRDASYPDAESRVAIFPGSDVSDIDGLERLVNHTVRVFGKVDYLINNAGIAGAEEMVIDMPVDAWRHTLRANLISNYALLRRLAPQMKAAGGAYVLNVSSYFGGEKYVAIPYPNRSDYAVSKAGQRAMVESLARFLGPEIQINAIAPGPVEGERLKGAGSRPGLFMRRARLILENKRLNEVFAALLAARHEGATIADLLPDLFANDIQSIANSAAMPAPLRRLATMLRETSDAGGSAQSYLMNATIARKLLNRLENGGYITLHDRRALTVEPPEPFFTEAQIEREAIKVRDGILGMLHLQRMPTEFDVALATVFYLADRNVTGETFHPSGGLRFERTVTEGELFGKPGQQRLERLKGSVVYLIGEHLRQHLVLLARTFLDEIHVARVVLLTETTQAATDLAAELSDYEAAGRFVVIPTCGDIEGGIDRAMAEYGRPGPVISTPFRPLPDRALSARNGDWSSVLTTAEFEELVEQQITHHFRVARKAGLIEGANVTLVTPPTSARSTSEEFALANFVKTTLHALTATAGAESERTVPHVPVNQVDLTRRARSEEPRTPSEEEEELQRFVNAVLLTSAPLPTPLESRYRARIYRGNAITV
T2 sequence (A7NN59 entry or part of it): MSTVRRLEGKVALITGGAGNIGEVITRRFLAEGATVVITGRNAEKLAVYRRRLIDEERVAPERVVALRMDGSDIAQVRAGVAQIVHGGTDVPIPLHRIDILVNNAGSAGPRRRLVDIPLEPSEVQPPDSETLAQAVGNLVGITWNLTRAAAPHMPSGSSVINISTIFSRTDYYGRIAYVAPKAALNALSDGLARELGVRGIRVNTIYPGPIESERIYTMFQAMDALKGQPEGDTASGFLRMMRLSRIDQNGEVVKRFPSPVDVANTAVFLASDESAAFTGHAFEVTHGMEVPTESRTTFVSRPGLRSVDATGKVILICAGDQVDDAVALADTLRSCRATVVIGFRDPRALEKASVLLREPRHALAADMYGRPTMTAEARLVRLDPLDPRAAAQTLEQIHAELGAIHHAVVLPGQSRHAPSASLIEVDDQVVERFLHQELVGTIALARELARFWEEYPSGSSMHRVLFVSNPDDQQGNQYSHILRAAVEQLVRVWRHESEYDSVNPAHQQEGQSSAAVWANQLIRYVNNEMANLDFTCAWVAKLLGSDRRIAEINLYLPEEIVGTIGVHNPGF
T12 sequence (A7NN59 entry or part of it Y749A): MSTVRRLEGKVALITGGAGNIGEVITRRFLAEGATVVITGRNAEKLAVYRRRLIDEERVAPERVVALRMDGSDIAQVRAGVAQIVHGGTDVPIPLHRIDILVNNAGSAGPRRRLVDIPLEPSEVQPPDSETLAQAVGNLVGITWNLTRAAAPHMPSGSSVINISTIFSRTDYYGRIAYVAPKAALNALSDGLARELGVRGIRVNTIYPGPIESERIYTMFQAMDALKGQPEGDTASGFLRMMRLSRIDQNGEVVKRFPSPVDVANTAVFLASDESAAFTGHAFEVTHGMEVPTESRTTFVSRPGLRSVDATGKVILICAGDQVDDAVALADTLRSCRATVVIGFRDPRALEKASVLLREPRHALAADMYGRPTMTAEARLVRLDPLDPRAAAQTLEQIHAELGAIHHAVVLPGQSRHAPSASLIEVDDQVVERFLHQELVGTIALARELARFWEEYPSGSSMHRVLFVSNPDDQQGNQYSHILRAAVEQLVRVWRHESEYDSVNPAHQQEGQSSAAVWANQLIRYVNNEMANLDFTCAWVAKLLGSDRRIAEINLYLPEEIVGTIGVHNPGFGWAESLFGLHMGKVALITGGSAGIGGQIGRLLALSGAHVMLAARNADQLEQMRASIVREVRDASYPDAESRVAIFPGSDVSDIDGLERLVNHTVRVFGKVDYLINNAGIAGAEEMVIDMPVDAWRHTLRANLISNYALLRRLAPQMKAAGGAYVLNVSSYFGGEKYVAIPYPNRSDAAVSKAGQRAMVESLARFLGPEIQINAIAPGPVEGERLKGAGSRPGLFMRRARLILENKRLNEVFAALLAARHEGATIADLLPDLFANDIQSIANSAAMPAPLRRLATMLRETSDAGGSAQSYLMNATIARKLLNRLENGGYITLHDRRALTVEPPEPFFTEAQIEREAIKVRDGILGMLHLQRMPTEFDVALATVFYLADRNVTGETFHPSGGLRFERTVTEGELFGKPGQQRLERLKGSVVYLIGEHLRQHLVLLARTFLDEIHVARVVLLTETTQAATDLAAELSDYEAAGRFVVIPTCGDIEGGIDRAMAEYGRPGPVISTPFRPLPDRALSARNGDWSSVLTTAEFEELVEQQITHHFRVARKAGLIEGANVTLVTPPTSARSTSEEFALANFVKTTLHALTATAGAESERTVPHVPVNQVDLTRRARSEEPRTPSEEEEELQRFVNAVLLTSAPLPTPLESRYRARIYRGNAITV
T4 sequence (A7NN59 entry or part of it R799A): as the sequence (A7NN59 entry or part of it Y749A) above, with A749Y, R799A counted along it
T10 sequence (A7NN59 entry or part of it S731A): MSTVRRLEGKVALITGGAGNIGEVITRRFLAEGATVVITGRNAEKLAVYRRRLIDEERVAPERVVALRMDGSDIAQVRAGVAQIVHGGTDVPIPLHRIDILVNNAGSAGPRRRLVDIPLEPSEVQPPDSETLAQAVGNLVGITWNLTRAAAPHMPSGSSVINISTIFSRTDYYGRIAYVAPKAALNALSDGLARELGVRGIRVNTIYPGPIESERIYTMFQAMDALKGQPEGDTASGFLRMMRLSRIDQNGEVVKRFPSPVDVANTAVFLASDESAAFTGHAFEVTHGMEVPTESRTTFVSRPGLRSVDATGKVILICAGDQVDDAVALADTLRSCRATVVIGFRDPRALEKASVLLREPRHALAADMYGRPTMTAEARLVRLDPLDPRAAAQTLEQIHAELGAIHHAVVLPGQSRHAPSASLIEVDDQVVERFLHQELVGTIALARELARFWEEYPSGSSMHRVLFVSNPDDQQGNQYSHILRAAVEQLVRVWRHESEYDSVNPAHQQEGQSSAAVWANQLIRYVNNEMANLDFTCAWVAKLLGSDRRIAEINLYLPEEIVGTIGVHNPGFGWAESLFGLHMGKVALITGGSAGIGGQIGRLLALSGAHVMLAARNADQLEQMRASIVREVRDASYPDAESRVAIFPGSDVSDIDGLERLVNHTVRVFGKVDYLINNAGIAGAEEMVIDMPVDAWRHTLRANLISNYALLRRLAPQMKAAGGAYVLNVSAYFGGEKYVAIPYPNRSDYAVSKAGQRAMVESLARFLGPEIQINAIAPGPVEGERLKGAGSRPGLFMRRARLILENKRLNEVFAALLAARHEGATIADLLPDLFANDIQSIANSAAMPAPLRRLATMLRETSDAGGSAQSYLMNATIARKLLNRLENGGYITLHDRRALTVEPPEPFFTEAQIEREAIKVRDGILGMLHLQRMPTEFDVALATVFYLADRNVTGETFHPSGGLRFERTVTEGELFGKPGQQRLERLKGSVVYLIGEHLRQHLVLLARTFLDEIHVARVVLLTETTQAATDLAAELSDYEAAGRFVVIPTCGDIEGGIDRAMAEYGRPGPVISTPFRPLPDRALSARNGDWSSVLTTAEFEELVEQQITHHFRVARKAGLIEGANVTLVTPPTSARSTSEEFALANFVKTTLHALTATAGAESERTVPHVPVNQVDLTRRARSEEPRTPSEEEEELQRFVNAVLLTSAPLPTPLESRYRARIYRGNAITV
T3 sequence (A7NN59 entry or part of it L795A): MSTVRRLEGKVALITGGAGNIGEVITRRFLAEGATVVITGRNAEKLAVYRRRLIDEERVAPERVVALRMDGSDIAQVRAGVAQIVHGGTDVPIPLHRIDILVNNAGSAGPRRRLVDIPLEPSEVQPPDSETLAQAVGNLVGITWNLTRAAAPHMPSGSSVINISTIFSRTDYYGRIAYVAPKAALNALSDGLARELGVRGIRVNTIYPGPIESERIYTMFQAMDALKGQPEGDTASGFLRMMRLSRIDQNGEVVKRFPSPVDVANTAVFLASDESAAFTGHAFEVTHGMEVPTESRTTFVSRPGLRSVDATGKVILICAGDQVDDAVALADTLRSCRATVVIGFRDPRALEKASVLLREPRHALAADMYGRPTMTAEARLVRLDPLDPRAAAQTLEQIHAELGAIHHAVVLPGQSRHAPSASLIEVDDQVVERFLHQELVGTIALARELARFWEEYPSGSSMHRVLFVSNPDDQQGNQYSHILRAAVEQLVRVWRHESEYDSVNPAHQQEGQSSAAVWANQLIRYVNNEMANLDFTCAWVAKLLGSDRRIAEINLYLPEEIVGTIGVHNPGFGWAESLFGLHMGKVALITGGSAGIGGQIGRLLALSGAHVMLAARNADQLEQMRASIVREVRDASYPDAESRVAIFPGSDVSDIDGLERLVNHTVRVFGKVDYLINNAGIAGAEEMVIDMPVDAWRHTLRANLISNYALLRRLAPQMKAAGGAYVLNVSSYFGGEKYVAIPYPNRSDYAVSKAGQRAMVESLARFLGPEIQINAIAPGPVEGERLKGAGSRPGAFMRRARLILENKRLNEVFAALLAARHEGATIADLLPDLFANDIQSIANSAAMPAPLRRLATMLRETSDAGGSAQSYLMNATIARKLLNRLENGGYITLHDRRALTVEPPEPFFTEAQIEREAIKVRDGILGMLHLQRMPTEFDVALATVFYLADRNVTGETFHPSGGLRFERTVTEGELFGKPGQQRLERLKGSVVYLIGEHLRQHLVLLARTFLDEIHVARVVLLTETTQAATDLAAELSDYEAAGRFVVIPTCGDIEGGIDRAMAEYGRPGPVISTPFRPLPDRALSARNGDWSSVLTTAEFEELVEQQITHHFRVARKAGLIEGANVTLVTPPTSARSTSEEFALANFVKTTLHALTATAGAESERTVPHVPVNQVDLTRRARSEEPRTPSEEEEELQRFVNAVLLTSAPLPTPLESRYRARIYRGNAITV
T6 sequence (A7NN59 entry or part of it K753A): as the sequence (A7NN59 entry or part of it Y749A) above, with A749Y, K753A counted along it

`NC(=O)c1ccc[n+]([C@@H]2O[C@H](COP(=O)(O)OP(=O)(O)OC[C@H]3O[C@@H](n4cnc5c(N)ncnc54)[C@H](OP(=O)(O)O)[C@@H]3O)[C@@H](O)[C@H]2O)c1` [NADP^+] was tested. Which “X-ray crystal structure, 2.3 Å” value ([1]; ternary complex with MSA) did it give?
The value was “a cofactor NADP^+ and intermediate MSA were resolved at the interface between the SDR3”.

Which results are given for `O=CCC(=O)O` [malonate semialdehyde]?
X-ray crystal structure, 2.0 Å [2]: extra electron density that precisely matched the reduction intermediate MSA; X-ray crystal structure, 2.3 Å ([1]; ternary complex with NADP+, MSA not added, modelled in density): a cofactor NADP^+ and intermediate MSA were resolved at the interface between the SDR3

`CC(C)(COP(=O)(O)OP(=O)(O)OC[C@H]1O[C@@H](n2cnc3c(N)ncnc32)[C@H](O)[C@@H]1OP(=O)(O)O)[C@@H](O)C(=O)NCCC(=O)NCCSC(=O)CC(=O)O` [malonyl-CoA] was tested. Which overall enzymatic activity [3] did it give?
The overall enzymatic activity was “mutagenesis of Arg746, Arg785, and Leu795”.

What about the overall enzymatic activity [4] of the same molecule?
The overall enzymatic activity was “Ser731, Tyr749, Lys753, and Arg799 completely eliminated enzymatic activity”.

And the overall enzymatic activity [5]?
The overall enzymatic activity was “mutagenesis of Arg746, Arg785, and Leu795”.

What about the overall enzymatic activity [6] of the same molecule?
Its overall enzymatic activity is “Ser731, Tyr749, Lys753, and Arg799 completely eliminated enzymatic activity”.

And the overall enzymatic activity [7]?
The overall enzymatic activity was “Site-directed mutation of Thr165, Tyr172, Arg175, Tyr178, and Lys182 to Ala residues”.

And the overall enzymatic activity [8]?
The overall enzymatic activity was “mutagenesis of Arg746, Arg785, and Leu795”.

What about the overall enzymatic activity [9] of the same molecule?
Its overall enzymatic activity is “Site-directed mutation of Thr165, Tyr172, Arg175, Tyr178, and Lys182 to Ala residues”.

And the overall enzymatic activity [10]?
Its overall enzymatic activity is “Ser731, Tyr749, Lys753, and Arg799 completely eliminated enzymatic activity”.

And the overall enzymatic activity [11]?
Its overall enzymatic activity is “Site-directed mutation of Thr165, Tyr172, Arg175, Tyr178, and Lys182 to Ala residues”.

What about the overall enzymatic activity [12] of the same molecule?
The overall enzymatic activity was “Ser731, Tyr749, Lys753, and Arg799 completely eliminated enzymatic activity”.

For “RfxMCR-C (Gly573-Val1229) (from UniProt A7NN59 573-1229) (domain or fragment)”, which stoichiometry N [13] is on record?
Its stoichiometry N is 2.
